According to US20230233569A1 (Revolution Medicines, Inc., priority 2020, published 2023):
Read-outs that look alike come from different tables or passages of the source.

Legend:
[1] = target: KRAS WT (Homo sapiens, UniProt P01116+P62937); assay: Disruption of BRAF RBD interaction with Ras (FRET / MOA assay, with Cyclophilin A); assay type: biochemical
How it was run: (§1)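 Cyclophilin A-dependent ternary complex assay. K-Ras loaded with nucleotide; BRAF RBD as effector. Cpd top 30 μM final, 3 h at 25 °C. Readout: TR-FRET ratio, IC50.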

[2] = target: KRAS G12C (Homo sapiens, UniProt P01116+P62937, G12C); assay: as above; assay type: biochemical
How it was run: as §1

[3] = target: KRAS G12D (Homo sapiens, UniProt P01116+P62937, G12D); assay: as above; assay type: biochemical
How it was run: as §1

[4] = target: KRAS G13D (Homo sapiens, UniProt P01116+P62937, G13D); assay: as above; assay type: biochemical
How it was run: as §1

[5] = target: KRAS G13C (Homo sapiens, UniProt P01116+P62937, G13C); assay: as above; assay type: biochemical
How it was run: as §1

[6] = target: NRAS G12C (Homo sapiens, UniProt P01111+P62937, G12C); assay: as above; assay type: biochemical
[7] = target: KRAS G12S (Homo sapiens, UniProt P01116+P62937, G12S); assay: as above; assay type: biochemical
How it was run: as §1

[8] = target: KRAS G12V (Homo sapiens, UniProt P01116+P62937, G12V); assay: as above; assay type: biochemical
How it was run: as §1

[9] = test system: Capan-1 (K-Ras G12V); assay: CellTiter-Glo cell viability assay, 5-day treatment; assay type: cell-based; settings: Homo sapiens, CAPAN-1, 120 h, 5-day treatment; read-out: Capan-1 Cell Viability assay data (K-Ras G12V, IC50)
How it was run: (§2)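 Viability is read as luminescence on day 5 after direct compound addition to plated cells, following about 30 minutes' room-temperature equilibration. Each signal is scaled to mean DMSO as 100%.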

[10] = test system: NCI-H358 (K-Ras G12C); assay: as above; assay type: cell-based; settings: Homo sapiens, NCI-H358, 120 h, 5-day treatment; read-out: H358 Cell Viability assay data (K-Ras G12C, IC50)
How it was run: as §2

[11] = target: KRAS Q61H (Homo sapiens, UniProt P01116+P62937, Q61H); assay: Disruption of BRAF RBD interaction with Ras (FRET / MOA assay, with Cyclophilin A); assay type: biochemical; settings: KRAS Q61H; read-out: KRAS Q61H FRET data IC50
How it was run: (§3)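 TR-FRET in 25 mM HEPES pH 7.3, 100 mM NaCl, 5 mM MgCl2, 0.1% BSA: 25 μM Cyclophilin A, 12.5 nM His6-Ras-GMPPNP, 50 nM GST-BRAF RBD with compound (10-point 3-fold series from 30 μM), 3 h at 25° C. Anti-His Eu/anti-GST APC added, 1.5 h more; IC50 from decreased FRET ratio versus DMSO.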

[12] = target: NRAS Q61R (Homo sapiens, UniProt P01111+P62937, Q61R); assay: as above; assay type: biochemical; settings: NRAS Q61R; read-out: NRAS Q61R FRET data IC50
How it was run: as §3

[13] = target: NRAS Q61K (Homo sapiens, UniProt P01111+P62937, Q61K); assay: as above; assay type: biochemical; settings: NRAS Q61K; read-out: NRAS Q61K FRET data IC50
How it was run: as §3

[14] = target: NRAS WT (Homo sapiens, UniProt P01111+P62937); assay: as above; assay type: biochemical; settings: NRAS WT; read-out: NRAS WT FRET data IC50
How it was run: as §3

[15] = KRAS WT, read-out: KRAS WT FRET data IC50
[16] = read-out: KRAS G12C FRET data, IC50
[17] = read-out: KRAS G12D FRET data, IC50
[18] = KRAS G13D, read-out: KRAS G13D FRET data IC50
[19] = read-out: KRAS G13C FRET data, IC50
[20] = NRAS G12C, read-out: NRAS G12C FRET data IC50
[21] = read-out: KRAS G12S FRET data, IC50
[22] = KRAS G12V, read-out: KRAS G12V FRET data IC50

KRAS G12V, sequence (P01116 1-169 isoform P01116-2 G12V limits assumed): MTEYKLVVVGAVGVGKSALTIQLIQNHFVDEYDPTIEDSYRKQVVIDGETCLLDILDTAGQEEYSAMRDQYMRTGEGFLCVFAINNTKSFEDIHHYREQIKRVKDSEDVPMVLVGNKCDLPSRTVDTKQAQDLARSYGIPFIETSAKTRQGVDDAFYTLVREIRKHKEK
KRAS G12V, sequence (P62937 whole entry): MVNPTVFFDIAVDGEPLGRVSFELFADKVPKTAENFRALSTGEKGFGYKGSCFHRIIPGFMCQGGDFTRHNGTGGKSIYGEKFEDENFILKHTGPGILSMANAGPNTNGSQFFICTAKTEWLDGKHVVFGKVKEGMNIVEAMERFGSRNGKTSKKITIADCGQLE
KRAS G13C, sequence (P01116 1-169 isoform P01116-2 G13C): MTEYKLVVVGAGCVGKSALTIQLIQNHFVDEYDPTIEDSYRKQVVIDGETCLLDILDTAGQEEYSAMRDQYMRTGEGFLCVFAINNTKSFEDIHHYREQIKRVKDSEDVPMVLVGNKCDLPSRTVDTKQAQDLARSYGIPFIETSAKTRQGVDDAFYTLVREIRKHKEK
KRAS G13C, sequence (P62937 whole entry): as the sequence (P62937 whole entry) above
KRAS G13D, sequence (P01116 1-169 isoform P01116-2 G13D limits assumed): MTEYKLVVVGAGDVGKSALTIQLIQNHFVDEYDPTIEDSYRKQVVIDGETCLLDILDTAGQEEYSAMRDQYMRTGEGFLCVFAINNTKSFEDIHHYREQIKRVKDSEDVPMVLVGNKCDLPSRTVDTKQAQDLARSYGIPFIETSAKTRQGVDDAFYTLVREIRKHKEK
KRAS G13D, sequence (P62937 whole entry): as the sequence (P62937 whole entry) above
KRAS Q61H, sequence (P01116 1-169 isoform P01116-2 Q61H limits assumed): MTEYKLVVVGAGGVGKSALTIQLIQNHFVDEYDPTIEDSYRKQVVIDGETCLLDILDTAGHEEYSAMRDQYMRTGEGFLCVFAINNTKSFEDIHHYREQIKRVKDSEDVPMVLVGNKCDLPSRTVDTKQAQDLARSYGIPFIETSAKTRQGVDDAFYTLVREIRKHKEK
KRAS Q61H, sequence (P62937 whole entry): as the sequence (P62937 whole entry) above
NRAS G12C, sequence (P01111 whole entry G12C): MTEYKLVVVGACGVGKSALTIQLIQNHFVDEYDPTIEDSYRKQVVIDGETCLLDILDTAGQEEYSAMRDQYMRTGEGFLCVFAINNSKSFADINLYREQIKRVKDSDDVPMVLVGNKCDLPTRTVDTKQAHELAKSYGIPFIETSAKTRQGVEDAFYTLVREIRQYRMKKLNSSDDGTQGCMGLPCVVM
NRAS G12C, sequence (P62937 whole entry): as the sequence (P62937 whole entry) above
KRAS G12C, sequence (P01116 1-169 isoform P01116-2 G12C): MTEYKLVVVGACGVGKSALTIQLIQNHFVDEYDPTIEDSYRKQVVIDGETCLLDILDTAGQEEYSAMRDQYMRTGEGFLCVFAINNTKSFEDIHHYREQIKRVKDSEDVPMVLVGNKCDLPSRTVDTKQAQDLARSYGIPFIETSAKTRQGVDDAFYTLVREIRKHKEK
KRAS G12C, sequence (P62937 whole entry): as the sequence (P62937 whole entry) above
NRAS Q61K, sequence (P01111 whole entry Q61K): as the sequence (P01111 whole entry G12C) above, with C12G, Q61K counted along it
NRAS Q61K, sequence (P62937 whole entry): as the sequence (P62937 whole entry) above
NRAS WT, sequence (P01111 whole entry): as the sequence (P01111 whole entry G12C) above, with C12G counted along it
NRAS WT, sequence (P62937 whole entry): as the sequence (P62937 whole entry) above
KRAS G12D, sequence (P01116 1-169 isoform P01116-2 G12D limits assumed): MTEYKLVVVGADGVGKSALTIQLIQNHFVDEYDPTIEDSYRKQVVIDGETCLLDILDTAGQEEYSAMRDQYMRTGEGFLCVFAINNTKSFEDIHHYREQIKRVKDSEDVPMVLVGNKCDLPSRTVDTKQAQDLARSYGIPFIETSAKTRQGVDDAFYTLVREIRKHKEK
KRAS G12D, sequence (P62937 whole entry): as the sequence (P62937 whole entry) above
KRAS WT, sequence (P01116 1-169 isoform P01116-2 limits assumed): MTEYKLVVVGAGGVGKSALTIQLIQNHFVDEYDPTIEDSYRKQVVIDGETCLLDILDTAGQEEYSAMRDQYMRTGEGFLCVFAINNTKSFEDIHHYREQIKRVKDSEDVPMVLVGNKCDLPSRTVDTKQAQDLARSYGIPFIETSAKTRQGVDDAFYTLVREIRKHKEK
KRAS WT, sequence (P62937 whole entry): as the sequence (P62937 whole entry) above
KRAS G12S, sequence (P01116 1-169 isoform P01116-2 G12S limits assumed): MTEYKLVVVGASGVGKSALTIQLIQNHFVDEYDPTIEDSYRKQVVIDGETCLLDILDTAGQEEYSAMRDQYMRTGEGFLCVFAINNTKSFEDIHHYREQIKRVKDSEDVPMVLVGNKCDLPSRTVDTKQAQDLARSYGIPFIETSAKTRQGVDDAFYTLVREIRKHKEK
KRAS G12S, sequence (P62937 whole entry): as the sequence (P62937 whole entry) above
NRAS Q61R, sequence (P01111 whole entry Q61R): as the sequence (P01111 whole entry G12C) above, with C12G, Q61R counted along it
NRAS Q61R, sequence (P62937 whole entry): as the sequence (P62937 whole entry) above

| SMILES | IC50 [1, 15] [nM] | IC50 [2, 16] [nM] | IC50 [3, 17] [nM] | IC50 [4, 18] [nM] | IC50 [5, 19] [nM] | IC50 [6, 20] [nM] | IC50 [7, 21] [nM] | IC50 [8, 22] [nM] | IC50 [10] [nM] | IC50 [11] [nM] | IC50 [12] [nM] | IC50 [13] [nM] | IC50 [14] [nM] | IC50 [9] [nM] | also measured |
| --- | --- | --- | --- | --- | --- | --- | --- | --- | --- | --- | --- | --- | --- | --- | --- |
| CCn1c(-c2cccnc2[C@H](C)OC)c2c3cc(ccc31)-c1csc(n1)C[C@H](NC(=O)[C@H](C(C)C)N(C)C(=O)N1C[C@@H]3CN(C)C[C@@H]31)C(=O)N1CCC[C@H](N1)C(=O)OCC(C)(C)C2 (atropisomer, axis not shown) [Example A446] | 1000 to 10000 | 1000 to 10000 | > 10000 | 1000 to 10000 | 1000 to 10000 | 1000 to 10000 | 1000 to 10000 | > 10000 |  | 1000 to 10000 | > 10000 | 1000 to 10000 | 1000 to 10000 | > 10000 |  |
| CCn1c(-c2cccnc2[C@H](C)OC)c2c3cc(ccc31)-c1csc(n1)C[C@H](NC(=O)[C@H](C(C)C)N1CCC3(CCN(S(C)(=O)=O)C3)C1=O)C(=O)N1CCC[C@H](N1)C(=O)OCC(C)(C)C2 (mixture of isomers) [Example A220] |  |  |  |  |  |  |  |  |  | 1000 to 10000 | 1000 to 10000 | 1000 to 10000 | 1000 to 10000 | 1000 to 10000 |  |
| CCn1c(-c2cnccc2COC)c2c3cc(ccc31)-c1cc(O)cc(c1)C[C@H](NC(=O)[C@H](C(C)C)N(C)C(=O)[C@H]1CCN(S(=O)(=O)N3CC(O)C3)C1)C(=O)N1CCC[C@H](N1)C(=O)OCC(C)(C)C2 [Example A37, (2S)—N-[(8S,14S)-22-ethyl-4-hydroxy-21-[4-(methoxymethyl)pyridin-3-yl]-18,18-dimethyl-9,15-dioxo-16-oxa-10,22,28-triazapentacyclo[18.5.2.1^2,6.1^10,14.0^23,27]nonacosa-1(26),2,4,6(29),20,23(27),24-heptaen-8-yl]-2-{1-[(3S)-1-[(3-hydroxyazetidin-1-yl)sulfonyl]pyrrolidin-3-yl]-N-methylformamido}-3-methylbutanamide] |  |  |  |  |  |  |  |  | 1000 to 10000 | 10 to 100 | 1000 to 10000 | 1000 to 10000 | 100 to 1000 |  | IC50 ([1]; KRAS WT FRET data IC50, KRAS WT): 100 to 1000 nM; IC50 ([2]; KRAS G12C FRET data, IC50): 100 to 1000 nM; IC50 ([3]; KRAS G12D FRET data, IC50): > 10000 nM; IC50 ([4]; KRAS G13D FRET data IC50, KRAS G13D): 1000 to 10000 nM; IC50 ([5]; KRAS G13C FRET data, IC50): 100 to 1000 nM; IC50 ([6]; NRAS G12C FRET data IC50, NRAS G12C): 100 to 1000 nM; IC50 ([7]; KRAS G12S FRET data, IC50): 100 to 1000 nM; IC50 ([8]; KRAS G12V FRET data IC50, KRAS G12V): 100 to 1000 nM |

The next lines start with results.

| IC50 [1, 15] [nM] | IC50 [2, 16] [nM] | IC50 [3, 17] [nM] | IC50 [4, 18] [nM] | IC50 [5, 19] [nM] | IC50 [6, 20] [nM] | IC50 [7, 21] [nM] | IC50 [8, 22] [nM] | IC50 [10] [nM] | IC50 [11] [nM] | IC50 [12] [nM] | IC50 [13] [nM] | IC50 [14] [nM] | SMILES | IC50 [9] [nM] | also measured |
| --- | --- | --- | --- | --- | --- | --- | --- | --- | --- | --- | --- | --- | --- | --- | --- |
| 10 to 100 | 100 to 1000 | 10 to 100 | 10 to 100 | 10 to 100 | 100 to 1000 | 10 to 100 | 100 to 1000 | 100 to 1000 | 10 to 100 | 1000 to 10000 | 100 to 1000 | 10 to 100 | CCn1c(-c2cccnc2[C@H](C)OC)c2c3cc(ccc31)-c1cc(O)cc(c1)C[C@H](NC(=O)[C@H](C(C)C)N(C)C(=O)C1CN(C)C1)C(=O)N1CCC[C@H](N1)C(=O)OCC(C)(C)C2 (atropisomer, axis not shown) [Example A124] | 1000 to 10000 |  |
| 100 to 1000 | 100 to 1000 | 1000 to 10000 | 100 to 1000 | 1000 to 10000 | 100 to 1000 | 100 to 1000 | 100 to 1000 | 1000 to 10000 | 10 to 100 | 100 to 1000 | 100 to 1000 | 100 to 1000 | CCn1c(-c2cnccc2COC)c2c3cc(ccc31)-c1cc(O)cc(c1)C[C@H](NC(=O)[C@H](C(C)C)N(C)C(=O)c1ncco1)C(=O)N1CCC[C@H](N1)C(=O)OCC(C)(C)C2 [Example A38] |  |  |
